The subject of the assay is Radical scavenging activity. As to the kind of experiment: Antioxidant activity assessed as DPPH radical scavenging activity after 30 mins by spectrophotometer. It is filed as functional. In general terms: Loss of DPPH colour is used to gauge radical scavenging.
As usually defined, the IC50 is the concentration needed to halve the response being measured. `OCc1c(Br)c(O)c(O)c(Br)c1Br`: the IC50 came out at 7.5 µM.
As to `O=C1O[C@H]([C@@H](O)CO)C(O)=C1O` [ASCORBIC ACID], the IC50 amounted to 15.3 µM.
For `O=C1CCCC[C@@H]1Cc1c(Br)c(O)c(O)c(Br)c1Br` [SYMPHYOKETONE] the value was 8.5 µM.

The record behind these values is ChEMBL document CHEMBL1154993, “A cyclohexanonyl bromophenol from the red alga Symphyocladia latiuscula” (J Nat Prod, 2000).
